Experimental data as given in ChEMBL document CHEMBL1201862, “PubChem BioAssay data set” (2004).
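Interpolation was linear, between the two tested concentrations surrounding the appropriate level; five concentrations were tested over 48 hours in 96-well plates. GI50 is the concentration that inhibits growth by half.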 Active and inactive are the calls of the source. Rule as the data show it: active = GI50 up to about 1.1 µM and inactive = higher.

How the values were obtained:
Test in all cases: NCI tumour cell line growth inhibition, 48 h
SF-295 = test system: SF-295
HCC 2998 = test system: HCC 2998
SK-MEL-2 = test system: SK-MEL-2
HCT-116 = test system: HCT-116
786-0 = test system: 786-0
NCI-H226 = test system: NCI-H226
TK-10 = test system: TK-10
CCRF-CEM = test system: CCRF-CEM
NCI-H460 = test system: NCI-H460
CAKI-1 = test system: CAKI-1
SNB-19 = test system: SNB-19
ACHN = test system: ACHN
SF-539 = test system: SF-539
RXF 393 = test system: RXF 393
HOP-92 = test system: HOP-92
MOLT-4 = test system: MOLT-4
RPMI-8226 = test system: RPMI-8226
NCI-H522 = test system: NCI-H522
COLO 205 = test system: COLO 205
UO-31 = test system: UO-31

Row | Compound | GI50 (SF-295) | GI50 (HCC 2998) | GI50 (SK-MEL-2) | GI50 (HCT-116) | GI50 (786-0) | GI50 (NCI-H226) | GI50 (TK-10) | GI50 (CCRF-CEM) | GI50 (NCI-H460) | GI50 (CAKI-1) | GI50 (SNB-19) | GI50 (ACHN) | GI50 (SF-539) | GI50 (RXF 393) | GI50 (HOP-92) | GI50 (MOLT-4) | GI50 (RPMI-8226) | GI50 (NCI-H522) | GI50 (COLO 205) | GI50 (UO-31)
1 | N#Cc1c2c(c(Nc3ccc(F)cc3)n3c1nc1ccccc13)CCC2 | 5.05 µM (inactive) | 18.4 µM (inactive) | 14.3 µM (inactive) | 1.76 µM (inactive) | 1.78 µM (inactive) | 6.81 µM (inactive) | 3.7 µM (inactive) | 0.791 µM (active) | 7.21 µM (inactive) | 1.68 µM (inactive) | 8.61 µM (inactive) | 2.29 µM (inactive) | 3.46 µM (inactive) | 2.14 µM (inactive) | 6.37 µM (inactive) | 7.73 µM (inactive) | 2.28 µM (inactive) | 2.2 µM (inactive) | 6.31 µM (inactive) | 2.45 µM (inactive)
2 | COc1ccc(/C=C/C(=O)Oc2cc(O)cc(O)c2)cc1 | 23.2 µM (inactive) | 33 µM (inactive) | > 100 µM (inactive) | 14.3 µM (inactive) | 56.9 µM (inactive) | > 100 µM (inactive) | > 100 µM (inactive) | 11.5 µM (inactive) | > 100 µM (inactive) | 17.2 µM (inactive) | > 100 µM (inactive) | 87.5 µM (inactive) | 95.1 µM (inactive) | 72.4 µM (inactive) | 93.1 µM (inactive) | 11.3 µM (inactive) | 16.3 µM (inactive) | 24.4 µM (inactive) | 57.9 µM (inactive) | 37.6 µM (inactive)
3 | O=C1c2ccccc2S(=O)(=O)c2c1cccc2[N+](=O)[O-] | 8.99 µM (inactive) | 5.77 µM (inactive) | 5.85 µM (inactive) | 1.3 µM (inactive) | 1.52 µM (inactive) | > 7.26 µM (inactive) | 5.69 µM (inactive) | 1.51 µM (inactive) | > 5.83 µM (inactive) | 4.21 µM (inactive) | > 10 µM (inactive) | 2.44 µM (inactive) | 1.94 µM (inactive) | 2.9 µM (inactive) | 4.49 µM (inactive) | 1.85 µM (inactive) | 1.63 µM (inactive) | 1.18 µM (inactive) | 1.16 µM (inactive) | 2 µM (inactive)
4 | CCCCC1c2c([nH]c3ccccc23)C2C(=O)N(c3ccc(OC)cc3)C(=O)C2C1CCC (stereo not given) | > 10 µM (inactive) | 3.47 µM (inactive) | 2.39 µM (inactive) | 3.01 µM (inactive) | 4.39 µM (inactive) | 5.02 µM (inactive) | 4.37 µM (inactive) | 3.66 µM (inactive) | 4.19 µM (inactive) | 1.23 µM (inactive) | 8.59 µM (inactive) | 5.7 µM (inactive) | 2.24 µM (inactive) | 3.39 µM (inactive) | 3.03 µM (inactive) | 2.74 µM (inactive) | 4.61 µM (inactive) | 6.28 µM (inactive) | 2.59 µM (inactive) | 4.45 µM (inactive)
5 | CC(=O)NC(CCCCN(Cc1ccccc1)C(=O)N(C)N=O)C(=O)NCc1ccccc1 (stereo not given) | > 100 µM (inactive) | > 100 µM (inactive) | > 100 µM (inactive) | 71.3 µM (inactive) | > 100 µM (inactive) | 36.5 µM (inactive) | > 100 µM (inactive) | 59.6 µM (inactive) | 88.7 µM (inactive) | > 100 µM (inactive) | > 100 µM (inactive) | > 100 µM (inactive) | > 100 µM (inactive) | 72.1 µM (inactive) | 61.8 µM (inactive) | 39.6 µM (inactive) | 40.6 µM (inactive) | 16.8 µM (inactive) | 88.3 µM (inactive) | 47.3 µM (inactive)
6 | CC(=O)OC1CC[C@@]2(C)C(=CC[C@@H]3[C@@H]2CC[C@]2(C)Nc4c(cnn4-c4ccc(F)cc4)C[C@@H]32)C1 (stereo not given in full) | 4.53 µM (inactive) | > 100 µM (inactive) | 17.9 µM (inactive) | 7.4 µM (inactive) | 3.26 µM (inactive) | 59.7 µM (inactive) | 49 µM (inactive) | 6.46 µM (inactive) | 12.9 µM (inactive) | 6.1 µM (inactive) | 30.9 µM (inactive) | 35.3 µM (inactive) | 5.33 µM (inactive) | 2.64 µM (inactive) | 53.5 µM (inactive) | 2.02 µM (inactive) | 3.24 µM (inactive) | 68.4 µM (inactive) | 5.45 µM (inactive) | 12.6 µM (inactive)
7 | CNCCCNC(=S)Cn1cc(C)c(=O)[nH]c1=O | > 27 µM (inactive) | > 52.6 µM (inactive) | > 45.2 µM (inactive) | > 33.8 µM (inactive) | > 44.3 µM (inactive) | > 59 µM (inactive) | > 64.7 µM (inactive) | > 30.6 µM (inactive) | > 43 µM (inactive) | 24.9 µM (inactive) | > 91.2 µM (inactive) | > 49.2 µM (inactive) | > 20.1 µM (inactive) | > 60.3 µM (inactive) | 34.4 µM (inactive) | > 35.2 µM (inactive) | > 100 µM (inactive) | > 53.6 µM (inactive) | > 48.8 µM (inactive) | > 48 µM (inactive)
8 | CC1(C)[C@@H]2CC[C@@]1(C)CN(CCC[N+](C)(C)C)C2 | > 100 µM (inactive) | > 100 µM (inactive) | > 100 µM (inactive) | > 100 µM (inactive) | > 100 µM (inactive) | > 100 µM (inactive) | > 100 µM (inactive) | > 100 µM (inactive) | > 100 µM (inactive) | > 100 µM (inactive) | > 100 µM (inactive) | > 100 µM (inactive) | > 100 µM (inactive) | > 100 µM (inactive) | > 100 µM (inactive) | > 100 µM (inactive) | > 100 µM (inactive) | > 100 µM (inactive) | > 100 µM (inactive) | > 100 µM (inactive)
9 | N#Cc1c(=O)c2cc([N+](=O)[O-])ccc2n2c1[nH]c1ccccc12 | 4.2 µM (inactive) | 7.21 µM (inactive) | 5.25 µM (inactive) | 3.37 µM (inactive) | 6.75 µM (inactive) | 4.58 µM (inactive) | 5.92 µM (inactive) | 5.37 µM (inactive) | 4.99 µM (inactive) | 6.84 µM (inactive) | 5.41 µM (inactive) | 9.48 µM (inactive) | 17.3 µM (inactive) | 3.55 µM (inactive) | 2.62 µM (inactive) | 4.83 µM (inactive) | 1.91 µM (inactive) | 2.18 µM (inactive) | 4.99 µM (inactive) | 4.3 µM (inactive)
10 | CCCCCCCCC[C@@H]1C[C@@H]2CCC3C(C(=O)OC)=C(C)N=C(N1)N32 (stereo not given in full) | 9.4 µM (inactive) | 2.86 µM (inactive) | 11.1 µM (inactive) | 4.25 µM (inactive) | 4.22 µM (inactive) | 6.98 µM (inactive) | 13.2 µM (inactive) | > 100 µM (inactive) | 3.65 µM (inactive) | 17.3 µM (inactive) | 4.18 µM (inactive) | 16.1 µM (inactive) | 3.29 µM (inactive) | 2.64 µM (inactive) | 10 µM (inactive) | 8.22 µM (inactive) | 6 µM (inactive) | 2.96 µM (inactive) | 3.37 µM (inactive) | 15.3 µM (inactive)
11 | CCc1cccc(C(C)C)c1NC(=O)C(=O)C(CC(=O)Nc1ccc(Cl)c(Cl)c1)C(=O)OC (stereo not given) | > 100 µM (inactive) | > 100 µM (inactive) | > 100 µM (inactive) | 34.3 µM (inactive) | > 100 µM (inactive) | > 100 µM (inactive) | > 100 µM (inactive) | > 100 µM (inactive) | 85.7 µM (inactive) | > 100 µM (inactive) | > 100 µM (inactive) | 78 µM (inactive) | > 100 µM (inactive) | > 100 µM (inactive) | 51.3 µM (inactive) | > 100 µM (inactive) | 44 µM (inactive) | 78.9 µM (inactive) | 77.3 µM (inactive) | 37.8 µM (inactive)
12 | Cc1ccc([Se][Se]c2ccc(C)cc2)cc1 | 23.3 µM (inactive) | 53.8 µM (inactive) | 45.2 µM (inactive) | 14.4 µM (inactive) | 18.6 µM (inactive) | 24.5 µM (inactive) | 67.9 µM (inactive) | 3.48 µM (inactive) | 37.8 µM (inactive) | 47.4 µM (inactive) | 33 µM (inactive) | 25.3 µM (inactive) | 22.3 µM (inactive) | 19.9 µM (inactive) | 6.87 µM (inactive) | 15.1 µM (inactive) | 5.02 µM (inactive) | 3.32 µM (inactive) | > 100 µM (inactive) | 14.1 µM (inactive)
13 | S=C(NN=C1NCCCCN1)Nc1ccc(Cl)cc1 | 13.7 µM (inactive) | 18.1 µM (inactive) | 22.3 µM (inactive) | 7.52 µM (inactive) | 7.35 µM (inactive) | > 100 µM (inactive) | 27.3 µM (inactive) | 4.48 µM (inactive) | 3.78 µM (inactive) | < 0.01 µM (active) | 77.6 µM (inactive) | 7.29 µM (inactive) | 28.2 µM (inactive) | > 100 µM (inactive) | 29.8 µM (inactive) | 6.67 µM (inactive) | 7.83 µM (inactive) | 12.9 µM (inactive) | 13.1 µM (inactive) | 9.44 µM (inactive)
14 | CCc1nc(N)nc(N)c1-c1ccc([N+](=O)[O-])c(Cl)c1 | 2.59 µM (inactive) | 10 µM (inactive) | 34.7 µM (inactive) | 0.457 µM (active) | 1.77 µM (inactive) | 30.4 µM (inactive) | 24.9 µM (inactive) | 2.36 µM (inactive) | 0.42 µM (active) | 4.55 µM (inactive) | 17.9 µM (inactive) | 2.73 µM (inactive) | 3.76 µM (inactive) | 16.1 µM (inactive) | 18.2 µM (inactive) | 4.27 µM (inactive) | 8.36 µM (inactive) | 6.1 µM (inactive) | 12.5 µM (inactive) | 9.04 µM (inactive)
